Laboratory results reported in patent publication US20130202698A1 (NANJING SANHOME PHARMACEUTICAL CO., LTD., priority 2005, published 2013).
Read-outs that look alike come from different tables or passages of the source. Marks after values point to notes of the source that are not given here.

Key:
[1] = system: Remefline-induced convulsion; assay: Anticonvulsant effects on Remefline-induced convulsion in mice; type: in vivo
Method: In one experiment, the anticonvulsant effects of levo- and dextro-ornidazole against drug-induced convulsions in mice were compared. In four different animal convulsion models, mice were treated by four different seizure-inducing agents, including Remefline, Strychnine, isoniazid, thiosemicarbazide. Levo- or dextro-ornidazole was administered along with the seizure-inducing agents, and several outcomes were measured, including rate of convulsion, mortality rate, time to convulsion (latency), and time to death. Diazepam was used as a positive anticonvulsant control.
Mice are randomized into 4 treatment groups (n=10 with half male and half female): dextro- or levo-ornidazole (dosage 40, 80, 160 mg/kg), vehicle control group (15% propylene glycol in 0.9% sodium chloride, 20 mL/kg) and the positive control group. Animals are treated with known convulsion-inducing agents, followed by the drug or vehicle control given intravenously. The dose volume is 20 mL/kg with an infusion rate of 0.2 mL/10 seconds.

[2] = system: Strychnine-induced convulsion; assay: Anticonvulsant effects on Strychnine-induced convulsion in mice; type: in vivo; conditions: n=10; for Convulsion Latency: Mean ± SD
Method: Mice are randomized into 4 treatment groups (n=10 with half male and half female): dextro- or levo-ornidazole (dosage 40, 80, 160 mg/kg), vehicle control group (15% propylene glycol in 0.9% sodium chloride, 20 mL/kg) and the positive control group. Animals are treated with known convulsion-inducing agents, followed by the drug or vehicle control given intravenously. The dose volume is 20 mL/kg with an infusion rate of 0.2 mL/10 seconds. The anticonvulsant effects are observed and recorded (see Tables 2-6).

[3] = Phase II clinical trial, oral tablets, departments of stomatology, adverse events; type: in vivo, human; conditions: human, in vivo, po
Method: (§1) Double-blinded randomized controlled trials were carried out to compare the adverse events of oral levo-ornidazole with racemate treatment groups. Two separate studies were conducted for patients with infections from either department of stomatology or obstetrics/gynecology.

[4] = Phase II clinical trial, oral tablets, departments of obstetrics/gynecology, adverse events; type: in vivo, human; conditions: human, in vivo, po
Method: as §1

[5] = system: spontaneous activities of mice; conditions: both, mouse, in vivo, iv
Method: Mice weighing 18-22 g, half male and half female, were placed in the laboratory 24 hours before the test to adapt to the environment. The room temperature was controlled at 24±2° C. Animals were fasted for 8 hours before testing, and then placed in a transparent cage. The number of spontaneous activities of mice was counted by an automatic device (model XZ-4 by Drug Research Institute of China Academy of Medical Sciences). Mice were pre-screened by counting their spontaneous activities for five minutes and unqualified mice were excluded. A total of 110 mice were selected and divided into 11 groups with 10 mice in each group.
Chlorpromazine (3 mg/kg) was used as the positive control. The dose volume was 0.2 mL/10 gram and infusion rate was 0.2 mL/10 seconds.

Purkinje cells = conditions: dog, in vivo, 200 mg/kg
Method: Male and female Beagle dogs were kept in laboratory conditions for 1 week to observe general health conditions. […] Animals were treated at dose of I.V. 200 mg/kg for ornidazole enantiomers, or 10 mL/kg for vehicle control for 2 weeks, then sacrificed for anatomical and pathological examinations.
Quantitative data were analyzed by group test and qualitative data by simplified direct probability method. A 10×10 area under low magnification was used to count cerebellar Purkinje cells.

[6] = rat, in vivo

## Cc1ncc([N+](=O)[O-])n1C[C@H](O)CCl [L-ornidazole, S-(−)-ornidazole]
[1]; 40 mg/kg i.v., n=10
  Mortality Rate: 10/10
  Rate of Convulsion: 10/10
[1]; 80 mg/kg i.v., n=10
  Rate of Convulsion: 10/10^#
[1]; 80 mg/kg i.v., n=10, listed as Levo-ornidazole, 80 mg/kg
  Mortality Rate: 10/10^##
[1]; 80 mg/kg i.v., n=10, listed as levo-ornidazole, 80 mg/kg
  Mortality Rate: 10/10
[1]; 160 mg/kg i.v., n=10
  Mortality Rate: 1/10**
  Rate of Convulsion: 9/10^##
[2]; 40 mg/kg i.v.
  Convulsion Latency: 5.3 ± 2.3 min
  Mortality Rate: 10/10
[2]; 80 mg/kg i.v.
  Convulsion Latency: 7.5 ± 3.3 min
  Mortality Rate: 10/10
[2]; 160 mg/kg i.v.
  Convulsion Latency: 8.6 ± 2.3 min
  Mortality Rate: 6/10^#
[3]
  Bloating, # of Patients with AE: 0
  Bloating, Incidence (%): 0.00%
  Constipation, # of Patients with AE: 1
  Constipation, Incidence (%): 0.72%
  Drowsy, # of Patients with AE: 0
  Drowsy, Incidence (%): 0.00%
  Dry mouth, # of Patients with AE: 0
  Dry mouth, Incidence (%): 0.00%
  Headache, # of Patients with AE: 0
  Headache, Incidence (%): 0.00%
  Hypersomnia, # of Patients with AE: 0
  Hypersomnia, Incidence (%): 0.00^# %
  Hypodynamia, # of Patients with AE: 0
  Hypodynamia, Incidence (%): 0.00%
  Loss of appetite, # of Patients with AE: 0
  Loss of appetite, Incidence (%): 0.00%
  Nausea, # of Patients with AE: 4
  Nausea, Incidence (%): 2.88%
  Palpitation, # of Patients with AE: 0
  Palpitation, Incidence (%): 0.00%
  Patients with adverse events (total): 5 patients
  Pruritus, # of Patients with AE: 0
  Pruritus, Incidence (%): 0.00%
  Rash, # of Patients with AE: 0
  Rash, Incidence (%): 0.00%
  Sourregurgitation, # of Patients with AE: 0
  Sourregurgitation, Incidence (%): 0.00%
  Stomach discomfort, # of Patients with AE: 0
  Stomach discomfort, Incidence (%): 0.00^# %
  Stupor, # of Patients with AE: 0
  Stupor, Incidence (%): 0.00%
  Total incidence rate of adverse events: 3.60%
  Vertigo, # of Patients with AE: 0
  Vertigo, Incidence (%): 0.00%
  Vomiting, # of Patients with AE: 0
  Vomiting, Incidence (%): 0.00%
[4]
  Abdominal pain, # of Patients with AE: 0
  Abdominal pain, Incidence (%): 0.00%
  Appetite drop, # of Patients with AE: 0
  Appetite drop, Incidence (%): 0.00%
  Bitter taste, # of Patients with AE: 0
  Bitter taste, Incidence (%): 0.00%
  Bloating, # of Patients with AE: 0
  Bloating, Incidence (%): 0.00%
  Blurred vision, # of Patients with AE: 0
  Blurred vision, Incidence (%): 0.00%
  Breast tenderness, # of Patients with AE: 0
  Breast tenderness, Incidence (%): 0.00%
  Chest tightness, # of Patients with AE: 0
  Chest tightness, Incidence (%): 0.00%
  Dazzle, # of Patients with AE: 0
  Dazzle, Incidence (%): 0.00%
  Diarrhea, # of Patients with AE: 0
  Diarrhea, Incidence (%): 0.00%
  Dizziness, # of Patients with AE: 0
  Dizziness, Incidence (%): 0.00%
  Dry mouth, # of Patients with AE: 0
  Dry mouth, Incidence (%): 0.00%
  Headache, # of Patients with AE: 0
  Headache, Incidence (%): 0.00%
  Hypersomnia, # of Patients with AE: 0
  Hypersomnia, Incidence (%): 0.00^## %
  Hypodynamia, # of Patients with AE: 0
  Hypodynamia, Incidence (%): 0.00%
  Nausea, # of Patients with AE: 1
  Nausea, Incidence (%): 0.70^# %
  Oral malodor, # of Patients with AE: 1
  Oral malodor, Incidence (%): 0.70%
  Patients with adverse events (total): 5 patients
  Rash, # of Patients with AE: 1
  Rash, Incidence (%): 0.70%
  Stomach ache, # of Patients with AE: 1
  Stomach ache, Incidence (%): 0.70%
  Stomach discomfort, # of Patients with AE: 1
  Stomach discomfort, Incidence (%): 0.70%
  Total incidence rate of adverse events: 3.50%
  Vertigo, # of Patients with AE: 0
  Vertigo, Incidence (%): 0.00^## %
  Vomiting, # of Patients with AE: 0
  Vomiting, Incidence (%): 0.00%
[5]; 40 mg/kg, 0.5 h
  Spontaneous Activities (per 5 min): 89 ± 48 per 5 min
[5]; 40 mg/kg, 1 h
  Spontaneous Activities (per 5 min): 75 ± 40 per 5 min
[5]; 40 mg/kg, 2 h
  Spontaneous Activities (per 5 min): 69 ± 29 per 5 min
[5]; 40 mg/kg, 3 h
  Spontaneous Activities (per 5 min): 63 ± 16 per 5 min
[5]; 40 mg/kg, 4 h
  Spontaneous Activities (per 5 min): 87 ± 43 per 5 min
[5]; 80 mg/kg, 0.5 h
  Spontaneous Activities (per 5 min): 59 ± 27 per 5 min
[5]; 80 mg/kg, 1 h
  Spontaneous Activities (per 5 min): 47 ± 30 per 5 min
[5]; 80 mg/kg, 2 h
  Spontaneous Activities (per 5 min): 44 ± 25 per 5 min
[5]; 80 mg/kg, 3 h
  Spontaneous Activities (per 5 min): 58 ± 36 per 5 min
[5]; 80 mg/kg, 4 h
  Spontaneous Activities (per 5 min): 64 ± 36 per 5 min
[5]; 160 mg/kg, 0.5 h
  Spontaneous Activities (per 5 min): 40 ± 31 per 5 min
[5]; 160 mg/kg, 1 h
  Spontaneous Activities (per 5 min): 45 ± 25 per 5 min
[5]; 160 mg/kg, 2 h
  Spontaneous Activities (per 5 min): 38 ± 18 per 5 min
[5]; 160 mg/kg, 3 h
  Spontaneous Activities (per 5 min): 53 ± 23 per 5 min
[5]; 160 mg/kg, 4 h
  Spontaneous Activities (per 5 min): 58 ± 26 per 5 min
Purkinje cells
  Purkinje cell morphology: did not cause significant change
[6]
  Distribution in different region of brain, levo- vs dextro-ornidazole: Similar
